# System: 276233-004-R-J1-PDC complex spheroid viability
# Test: Anticancer human tumor 276233-004-R-J1-PDC patient-derived colon adenocarcinoma cell line growth inhibition [GQUAD]
# Details: for IC50: curve of first compound; for viability, T/C: stronger effect = lower value
# Outline: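 Multi-cell-type spheroids of tumor cells with HUVEC and mesenchymal stem cells, treated with drug combinations. Concentrations descend in half-log steps from near clinical Cmax, or from 10 microM where Cmax is unknown; viability read-out.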
# [1] = second compound 0.0316 µM, first compound 0.0316 µM
# [2] = second compound 0.0316 µM, first compound 0.316 µM
# [3] = second compound 0.1 µM, first compound 0.0316 µM
# [4] = second compound 0.1 µM, first compound 0.316 µM
# [5] = second compound 0.316 µM, first compound 0.0316 µM
# [6] = second compound 0.316 µM, first compound 0.316 µM
# [7] = second compound 1 µM, first compound 0.0316 µM
# [8] = second compound 1 µM, first compound 0.316 µM
# [9] = second compound 3.16 µM, first compound 0.0316 µM
# [10] = second compound 3.16 µM, first compound 0.316 µM
# [11] = second compound 10 µM, first compound 0.0316 µM
# [12] = second compound 10 µM, first compound 0.316 µM
# [13] = second compound 0.0316 µM, first compound 0.000999 µM
# [14] = second compound 0.0316 µM, first compound 0.00316 µM
# [15] = second compound 0.0316 µM, first compound 0.00999 µM
# [16] = second compound 0.0316 µM, first compound 0.0999 µM
# [17] = second compound 0.1 µM, first compound 0.000999 µM
# [18] = second compound 0.1 µM, first compound 0.00316 µM
# [19] = second compound 0.1 µM, first compound 0.00999 µM
# [20] = second compound 0.1 µM, first compound 0.0999 µM
# [21] = second compound 0.316 µM, first compound 0.000999 µM
# [22] = second compound 0.316 µM, first compound 0.00316 µM
# [23] = second compound 0.316 µM, first compound 0.00999 µM
# [24] = second compound 0.316 µM, first compound 0.0999 µM
# [25] = second compound 1 µM, first compound 0.000999 µM
# [26] = second compound 1 µM, first compound 0.00316 µM
# [27] = second compound 1 µM, first compound 0.00999 µM
# [28] = second compound 1 µM, first compound 0.0999 µM
# [29] = second compound 3.16 µM, first compound 0.000999 µM
# [30] = second compound 3.16 µM, first compound 0.00316 µM
# [31] = second compound 3.16 µM, first compound 0.00999 µM
# [32] = second compound 3.16 µM, first compound 0.0999 µM
# [33] = second compound 10 µM, first compound 0.000999 µM
# [34] = second compound 10 µM, first compound 0.00316 µM
# [35] = second compound 10 µM, first compound 0.00999 µM
# [36] = second compound 10 µM, first compound 0.0999 µM
# 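Note: spheroids exposed to drugs for seven days.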
# 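Throughout, for viability, T/C: 100% = DMSO vehicle control viability.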
compound,measurement,setting,value
C=CC(=O)N1CCN(c2nc(=O)n(-c3c(C)ccnc3C(C)C)c3nc(-c4c(O)cccc4F)c(F)cc23)C(C)C1 (stereo unspecified) + Cc1cnc(CNC(=O)c2c(=O)c3ccc(N4CCCN(C)CC4)nc3n3c2sc2ccccc23)cn1,IC50,second compound 0.0316 µM,> 10000 nM
same,IC50,second compound 0.1 µM,> 10000 nM
same,IC50,second compound 0.316 µM,> 10000 nM
same,IC50,second compound 1 µM,> 10000 nM
same,IC50,second compound 3.16 µM,> 10000 nM
same,IC50,second compound 10 µM,> 10000 nM
same,"viability, T/C",[1],82.3%
same,"viability, T/C","second compound 0.0316 µM, first compound 0.1 µM",75.1%
same,"viability, T/C",[2],81.3%
same,"viability, T/C","second compound 0.0316 µM, first compound 1 µM",83.5%
same,"viability, T/C","second compound 0.0316 µM, first compound 3.16 µM",103%
same,"viability, T/C","second compound 0.0316 µM, first compound 10 µM",95.8%
same,"viability, T/C",[3],93.6%
same,"viability, T/C","second compound 0.1 µM, first compound 0.1 µM",84.6%
same,"viability, T/C",[4],94.9%
same,"viability, T/C","second compound 0.1 µM, first compound 1 µM",92.8%
same,"viability, T/C","second compound 0.1 µM, first compound 3.16 µM",98.4%
same,"viability, T/C","second compound 0.1 µM, first compound 10 µM",83.8%
same,"viability, T/C",[5],80.6%
same,"viability, T/C","second compound 0.316 µM, first compound 0.1 µM",86.3%
same,"viability, T/C",[6],82.6%
same,"viability, T/C","second compound 0.316 µM, first compound 1 µM",83.6%
same,"viability, T/C","second compound 0.316 µM, first compound 3.16 µM",83.3%
same,"viability, T/C","second compound 0.316 µM, first compound 10 µM",86.7%
same,"viability, T/C",[7],76.3%
same,"viability, T/C","second compound 1 µM, first compound 0.1 µM",71%
same,"viability, T/C",[8],88.9%
same,"viability, T/C","second compound 1 µM, first compound 1 µM",108%
same,"viability, T/C","second compound 1 µM, first compound 3.16 µM",79.5%
same,"viability, T/C","second compound 1 µM, first compound 10 µM",89.5%
same,"viability, T/C",[9],75.1%
same,"viability, T/C","second compound 3.16 µM, first compound 0.1 µM",74.9%
same,"viability, T/C",[10],77.1%
same,"viability, T/C","second compound 3.16 µM, first compound 1 µM",73.4%
same,"viability, T/C","second compound 3.16 µM, first compound 3.16 µM",77.7%
same,"viability, T/C","second compound 3.16 µM, first compound 10 µM",83.5%
same,"viability, T/C",[11],62.7%
same,"viability, T/C","second compound 10 µM, first compound 0.1 µM",68.9%
same,"viability, T/C",[12],75.6%
same,"viability, T/C","second compound 10 µM, first compound 1 µM",61.6%
same,"viability, T/C","second compound 10 µM, first compound 3.16 µM",80.3%
same,"viability, T/C","second compound 10 µM, first compound 10 µM",68.8%
CC[C@@]1(O)C(=O)OCc2c1cc1n(c2=O)Cc2cc3c(CN(C)C)c(O)ccc3nc2-1 + Cc1cnc(CNC(=O)c2c(=O)c3ccc(N4CCCN(C)CC4)nc3n3c2sc2ccccc23)cn1,IC50,second compound 0.0316 µM,> 316 nM
same,IC50,second compound 0.1 µM,> 316 nM
same,IC50,second compound 0.316 µM,> 316 nM
same,IC50,second compound 1 µM,> 316 nM
same,IC50,second compound 3.16 µM,> 316 nM
same,IC50,second compound 10 µM,> 316 nM
same,"viability, T/C",[13],88.1%
same,"viability, T/C",[14],94.5%
same,"viability, T/C",[15],87.9%
same,"viability, T/C",[1],80%
same,"viability, T/C",[16],98.7%
same,"viability, T/C",[2],82.5%
same,"viability, T/C",[17],93.3%
same,"viability, T/C",[18],101%
same,"viability, T/C",[19],107%
same,"viability, T/C",[3],83.7%
same,"viability, T/C",[20],87%
same,"viability, T/C",[4],76%
same,"viability, T/C",[21],83.9%
same,"viability, T/C",[22],90.8%
same,"viability, T/C",[23],106%
same,"viability, T/C",[5],84.4%
same,"viability, T/C",[24],87.7%
same,"viability, T/C",[6],92.7%
same,"viability, T/C",[25],81%
same,"viability, T/C",[26],93.9%
same,"viability, T/C",[27],87.1%
same,"viability, T/C",[7],80.5%
same,"viability, T/C",[28],88.2%
same,"viability, T/C",[8],107%
same,"viability, T/C",[29],81.9%
same,"viability, T/C",[30],84%
same,"viability, T/C",[31],80.6%
same,"viability, T/C",[9],87.2%
same,"viability, T/C",[32],82.3%
same,"viability, T/C",[10],80.8%
same,"viability, T/C",[33],73.2%
same,"viability, T/C",[34],67.9%
same,"viability, T/C",[35],70.2%
same,"viability, T/C",[11],83.6%
same,"viability, T/C",[36],70%
same,"viability, T/C",[12],89.6%
CCc1c2c(nc3ccc(O)cc13)-c1cc3c(c(=O)n1C2)COC(=O)[C@]3(O)CC + Cc1cnc(CNC(=O)c2c(=O)c3ccc(N4CCCN(C)CC4)nc3n3c2sc2ccccc23)cn1,IC50,second compound 0.0316 µM,> 316 nM
same,IC50,second compound 0.1 µM,> 316 nM
same,IC50,second compound 0.316 µM,> 316 nM
same,IC50,second compound 1 µM,> 316 nM
same,IC50,second compound 3.16 µM,> 316 nM
same,IC50,second compound 10 µM,> 316 nM
same,"viability, T/C",[13],96.8%
same,"viability, T/C",[14],92.2%
same,"viability, T/C",[15],90.9%
same,"viability, T/C",[1],90%
same,"viability, T/C",[16],99.4%
same,"viability, T/C",[2],103%
same,"viability, T/C",[17],97.9%
same,"viability, T/C",[18],90.4%
same,"viability, T/C",[19],90.6%
same,"viability, T/C",[3],110%
same,"viability, T/C",[20],94.2%
same,"viability, T/C",[4],89.2%
same,"viability, T/C",[21],91.6%
same,"viability, T/C",[22],103%
same,"viability, T/C",[23],105%
same,"viability, T/C",[5],84.8%
same,"viability, T/C",[24],85.8%
same,"viability, T/C",[6],79.4%
same,"viability, T/C",[25],85.4%
same,"viability, T/C",[26],74.7%
same,"viability, T/C",[27],84.7%
same,"viability, T/C",[7],77%
same,"viability, T/C",[28],83.2%
same,"viability, T/C",[8],76.2%
same,"viability, T/C",[29],81.6%
same,"viability, T/C",[30],96.1%
same,"viability, T/C",[31],80.2%
same,"viability, T/C",[9],67.4%
same,"viability, T/C",[32],85.1%
same,"viability, T/C",[10],71.5%
same,"viability, T/C",[33],72.4%
same,"viability, T/C",[34],88.4%
same,"viability, T/C",[35],75.5%
same,"viability, T/C",[11],65.5%
same,"viability, T/C",[36],77.8%
same,"viability, T/C",[12],62%

# — PubChem BioAssay AID2060496 (Molecular Pharmacology Branch, DTP, NCI, 2025)
